Experimental data as given in patent US8609100B2, “Method for inhibiting dendritic cell immunoreceptor (DCIR)-mediated human immunodeficiency virus infection comprising administering anti-DCIR antibodies” (Universite Laval, priority 2008, dated 2013).

Key:
[1] = tested on: HIV-1 (NL4-3balenv); experiment: HIV-1 transfer assay: virus-pulsed IM-MDDC co-cultured with autologous CD4+ T cells, p24 ELISA; type: cell-based, human immunodeficiency virus type 1
Procedure: HIV-1 transfer assay: IM-MDDC (10^5 cells in 100 μl) transfected either with the above listed siRNAs or pre-incubated with polyclonal anti-DCIR (10 μg/1.5×10^5 cells) were exposed to HIV-1 (10 ng of p24) for 60 min at 37° C. Next, the virus-cell mixture was washed three times with PBS to remove unadsorbed virions. In some experiments, cells were also treated with the anti-HIV-1 drug EFV (efavirenz) (50 μM). Finally, IM-MDDC were co-cultured with autologous activated CD4^+ T lymphocytes at a 1:3 ratio in complete RPMI-1640 medium supplemented with IL-2 (30 U/ml) in 96-well plates in a final volume of 200 μl. At day 2, virus production was estimated by measuring p24 levels in cell-free culture supernatants by ELISA.
(§1) We next evaluated the transfer of HIV to autologous CD4^+ T cells. To that effect, IM-MDDC (1×10^6 cells) were treated with Oligofectamine and then either left untreated (control) or exposed to a non-specific siRNA and a DCIR-specific siRNA. Next, cells (1×10^5) were pulsed with NL4-3balenv (10 ng of p24) for 60 min at 37° C. After three washes with PBS to eliminate unbound virus, IM-MDDC were co-cultured with autologous CD4^+ T cells at a 1:3 ratio. Cell-free culture supernatants were collected at day 2 following initiation of the co-culture and analyzed for the p24 content. Data shown in FIG. 3 represent the means±SD of triplicate samples from three combined independent experiments. Asterisks denote statistically significant data (***, P<0.001).
as §1, with “In FIG. 4A,” for “We next evaluated the transfer of HIV to autologous CD4^+ T cells. To that effect,”, “were either left untreated or treated with EFV. IM-MDDC (2×10^5 cells)” for “(1×10^5)”, “(20” for “(10”, “shown” for “shown in FIG. 3”, “two different donors and are representative of four separate donors.” for “three combined independent experiments.”, “(*, P<0.05, **, P<0.01).” for “(***, P<0.001).”
(§2) In FIG. 5 left panels, IM-MDDC (2×10^5 cells) were initially treated with either a control Ab or a polyclonal anti-DCIR (10 μg per 1.5×10^5 cells). Next, cells were extensively washed to eliminate excess Ab and pulsed with NL4-3balenv (20 ng of p24) for 2 hrs at 37° C. […] Cell-free culture supernatants were collected at the indicated time points and analyzed for the p24 content. […] Cell-free culture supernatants were collected at day 2 following initiation of the co-culture and analyzed for the p24 content. […]

[2] = tested on: DCIR; experiment: DCIR surface expression in siRNA-transfected IM-MDDC by flow cytometry; type: cell-based, human; details: 40 hrs after siRNA transfection, FIG. 2
Procedure: Flow cytometric analysis: Cell surface expression of DCIR was monitored by flow cytometric analysis with a flow cytometry apparatus (Epics ELITE ESP, Coulter Electronics, Burlington, ON). Before staining, cells were incubated for 15 min at 4° C. with 10% pooled human sera to block non-specific binding sites and washed once with phosphate buffered saline (PBS) supplemented with 0.5% bovine serum albumin (BSA). Next, cells were incubated for 45 min at 4° C. with anti-DCIR (0.25 μg) monoclonal Ab and then washed twice with PBS and 0.5% BSA. Non-specific staining was determined by using an isotype-matched irrelevant control Ab. After two final washes with PBS, cells were fixed in 2% paraformaldehyde and analyzed.
Gene silencing of DCIR with siRNAs: Small interfering RNAs (siRNAs) either specific (i.e. 5′-ATTTAGGTGGTCTGTCA-3′; [SEQ ID NO:11]) or non-specific for DCIR (i.e. 5′-[…]-3′; [SEQ ID NO:45]) were obtained from Qiagen and dissolved in an appropriate buffer. The studied siRNAs were subsequently tested in IM-MDDC as previously described 2. Control cells were treated with either Oligofectamine alone or Oligofectamine and non-specific siRNAs. […] The efficiency of DCIR silencing with the tested siRNA was monitored by flow cytometry.
We thus employed RNA interference to reduce DCIR expression in IM-MDDC and analyzed the possible effect on HIV-1 transfer. […]

[3] = tested on: DC-SIGN; experiment: DC-SIGN expression in IM-MDDC after DCIR-specific siRNA; type: cell-based, human; details: IM-MDDC transfected with siRNA; data not shown
Text: (§3) A ˜30% decrease in surface expression of DCIR in IM-MDDC was observed following the use of DCIR-specific siRNA (FIG. 2).

[4] = tested on: IM-MDDC; type: cell-based, human
Text: as §3

[5] = tested on: HIV-1 (NL4-3balenv); experiment: HIV-1 infection of IM-MDDC: virus production by p24 ELISA; type: cell-based, human immunodeficiency virus type 1; details: siRNA-transfected IM-MDDC pulsed with NL4-3balenv 20 ng p24 for 2 hrs; FIG. 4C
Procedure: HIV-1 infection of IM-MDDC: IM-MDDC (2×10^5 cells in a final volume of 100 μl) either transfected with the studied siRNAs or pre-incubated with the above mentioned polyclonal anti-DCIR were exposed to HIV-1 (20 ng of p24) for 2 hr at 37° C. After three washes with PBS, cells were maintained in complete RPMI-1640 culture medium supplemented with GM-CSF (1,000 U/ml) and IL-4 (200 U/ml) in 96-well plates in a final volume of 200 μl. Every 3 days and for a period lasting 9 days, half of the medium was removed and kept frozen at −20° C. until assayed. Virus production was estimated by measuring p24 levels in culture supernatants by ELISA. […]
In FIG. 4C, IM-MDDC were treated with Oligofectamine and then either left untreated (control) or exposed to a non-specific siRNA and a DCIR-specific siRNA. […] Cell-free culture supernatants were collected at the indicated time points and analyzed for the p24 content. […]
as §2, with “cells).” for “cells). Next, cells were extensively washed to eliminate excess Ab and pulsed with NL4-3balenv (20 ng of p24) for 2 hrs at 37° C.”

| Compound | effect on HIV-1 propagation (virus transfer) ([1]; EFV 50 μM added to IM-MDDC, FIG. 4A) | decrease in surface expression of DCIR in IM-MDDC [2] [%] | DC-SIGN expression [3] | cells viability [4] | reduction in virus transfer (average diminution) ([1]; cells treated with EFV (50 μM), NL4-3balenv 20 ng p24, co-culture day 2, FIG. 4A) [%] | reduction in virus transfer (average decrease) ([1]; in absence of EFV, NL4-3balenv 20 ng p24, co-culture day 2, FIG. 4A) [%] | transfer of HIV-1 from IM-MDDC to autologous CD4+ T cells (p24 content) ([1]; siRNA-transfected IM-MDDC pulsed with NL4-3balenv 10 ng p24 for 60 min, co-culture 1:3, day 2, FIG. 3) | de novo virus production in IM-MDDC (p24) [5] |
| --- | --- | --- | --- | --- | --- | --- | --- | --- |
| O=C1Nc2ccc(Cl)cc2[C@@](C#CC2CC2)(C(F)(F)F)O1 [EFV, efavirenz, reference compound] | limited effect | – | – | – | – | – | – | – |
| DCIR-specific siRNA: siRNA specific for DCIR, 5′-ATTTAGGTGGTCTGTCA-3′ [SEQ ID NO:11], obtained from Qiagen (chemistry not given here) | – | ~30 | not affected | minimally affected | 40 | 30 | reduced significantly | decrease |
